According to patent US11780893B2, “Kv1.3 blockers” (Zealand Pharma A/S, priority 2019, dated 2023):
Bridge positions count the residues as written; N and C are the ends. Square brackets hold non-standard residues; d marks the D form. Peptide text beside a SMILES is read from it. Nle = CCCC[C@H](N)C(=O)O

Biological target: T1, human Kv1.3 voltage-gated K+ channel (Homo sapiens, UniProt P22001)
T1 construct: host or cells: CHO-DUKX
Assay: cell-based
Conditions: inhibition of thallium flux, CHO-DUKX cells with human Kv1.3; read-out: IC50

T1 sequence (P22001 whole entry): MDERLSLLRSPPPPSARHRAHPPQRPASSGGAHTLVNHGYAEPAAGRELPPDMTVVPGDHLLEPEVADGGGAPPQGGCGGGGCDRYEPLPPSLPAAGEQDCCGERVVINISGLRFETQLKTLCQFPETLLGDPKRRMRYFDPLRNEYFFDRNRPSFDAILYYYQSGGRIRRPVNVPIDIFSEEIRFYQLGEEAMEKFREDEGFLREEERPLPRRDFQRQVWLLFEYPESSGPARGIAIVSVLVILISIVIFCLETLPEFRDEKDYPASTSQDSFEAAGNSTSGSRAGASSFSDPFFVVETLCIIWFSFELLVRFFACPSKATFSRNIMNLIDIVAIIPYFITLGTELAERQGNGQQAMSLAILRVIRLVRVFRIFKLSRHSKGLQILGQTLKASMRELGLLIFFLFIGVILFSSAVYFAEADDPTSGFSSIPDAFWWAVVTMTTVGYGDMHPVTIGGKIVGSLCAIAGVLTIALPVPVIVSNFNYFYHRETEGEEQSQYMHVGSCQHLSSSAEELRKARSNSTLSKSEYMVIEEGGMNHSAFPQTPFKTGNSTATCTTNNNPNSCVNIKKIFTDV

`CC[C@H](C)[C@@H]1NC(=O)[C@H](CO)NC(=O)CNC(=O)[C@H](CCC(=O)O)NC(=O)[C@H](C)NC(=O)[C@H](CCCCN)NC(=O)[C@H](CC(C)C)NC(=O)[C@@H]2CSSC[C@@H](C(=O)N[C@@H](Cc3ccc(O)cc3)C(=O)N3CCC[C@H]3C(=O)N[C@@H](CCCNC(=N)N)C(N)=O)NC(=O)[C@H](CCCCN)NC(=O)[C@@H]3CSSC[C@H](NC(=O)[C@H](CCC(=O)O)NC(=O)[C@H](C(C)C)NC(=O)[C@H](CO)NC(=O)[C@H](C)NC(=O)[C@H](CO)NC(=O)[C@@H](NC(=O)[C@H](CCCNC(=N)N)NC(=O)[C@H](CCSC)NC(=O)[C@H](CC(=O)O)NC(=O)[C@H](CCSC)NC(=O)[C@@H](N)CC(N)=O)CSSC[C@H](NC(=O)[C@H](CCCCN)NC(=O)CNC(=O)[C@H](Cc4ccccc4)NC1=O)C(=O)N[C@@H](CCSC)C(=O)N[C@@H](CC(N)=O)C(=O)N[C@@H](CCCCN)C(=O)N[C@@H](CCCCN)C(=O)N3)C(=O)N[C@@H](CCCCN)C(=O)N[C@@H](CCC(N)=O)C(=O)N[C@@H](CCCCN)C(=O)N2` [Compound 59] (H-NMDMRCSASVECKQKCLKAEGSIFGKCMNKKCKCYPR-NH2; disulfide 6-27, 12-32, 16-34) showed an IC50 of 0.035 nM.

`CCCC[C@@H]1NC(=O)[C@@H]2CSSC[C@H](NC(=O)[C@H](CCCNC(=N)N)NC(=O)[C@H](CCCC)NC(=O)[C@H](CCC(=O)O)NC(=O)[C@@H](N)CCCC)C(=O)N[C@@H](CO)C(=O)N[C@@H](C)C(=O)N[C@@H](CO)C(=O)N[C@@H](C(C)C)C(=O)N[C@@H](CCC(=O)O)C(=O)N[C@H]3CSSC[C@H](NC(=O)[C@H](CCCCN)NC(=O)[C@H](CCCCN)NC(=O)[C@H](CC(N)=O)NC1=O)C(=O)N[C@@H](CCCCN)C(=O)N[C@H](C(=O)N[C@@H](Cc1ccc(O)cc1)C(=O)N1CCC[C@H]1C(=O)N[C@@H](CCCNC(=N)N)C(=O)O)CSSC[C@H](NC(=O)[C@H](CCCCN)NC(=O)[C@H](CCC(N)=O)NC(=O)[C@H](CCCCN)NC3=O)C(=O)N[C@@H](CC(C)C)C(=O)N[C@@H](C)C(=O)N[C@@H](C)C(=O)N[C@@H]([C@@H](C)CC)C(=O)NCC(=O)N[C@@H](CO)C(=O)N[C@@H]([C@@H](C)CC)C(=O)N[C@@H](Cc1ccccc1)C(=O)NCC(=O)N[C@@H](CCCCN)C(=O)N2` [Compound 121] (H-[Nle]E[Nle]RCSASVECKQKCLAAIGSIFGKC[Nle]NKKCKCYPR-OH; disulfide 5-26, 11-31, 15-33) showed an IC50 of 0.451 nM.

Molecule `CCCC[C@H](NC(=O)[C@@H]1CCCN1)C(=O)N[C@@H](CCC(=O)O)C(=O)N[C@@H](CCCC)C(=O)N[C@@H](CCCNC(=N)N)C(=O)N[C@H]1CSSC[C@@H]2NC(=O)[C@H](CCCCN)NC(=O)CNC(=O)[C@H](Cc3ccccc3)NC(=O)[C@H]([C@@H](C)CC)NC(=O)[C@H](CO)NC(=O)CNC(=O)[C@H]([C@@H](C)CC)NC(=O)[C@H](C)NC(=O)[C@H](C)NC(=O)[C@H](CC(C)C)NC(=O)[C@@H]3CSSC[C@@H](C(=O)N[C@@H](Cc4ccc(O)cc4)C(=O)N4CCC[C@H]4C(=O)N[C@@H](CCCNC(=N)N)C(=O)N[C@@H](CCCNC(=N)N)C(=O)N[C@@H](Cc4ccc(O)cc4)C(=O)O)NC(=O)[C@H](CCCCN)NC(=O)[C@H](CSSC[C@H](NC(=O)[C@H](CCC(=O)O)NC(=O)[C@H](C(C)C)NC(=O)[C@H](CO)NC(=O)[C@H](C)NC(=O)[C@H](CO)NC1=O)C(=O)N[C@@H](CCCCN)C(=O)N[C@@H](CCC(N)=O)C(=O)N[C@@H](CCCCN)C(=O)N3)NC(=O)[C@H](CCCCN)NC(=O)[C@H](CCCCN)NC(=O)[C@H](CC(N)=O)NC(=O)[C@H](CCCC)NC2=O` [Compound 134] (H-P[Nle]E[Nle]RCSASVECKQKCLAAIGSIFGKC[Nle]NKKCKCYPRRY-OH; disulfide 6-27, 12-32, 16-34) has an IC50 of 0.21 nM.
